Experimental data as given in article PMC9328652, “A novel class of fast‐acting antimalarial agents: Substituted 15‐membered azalides” (British Journal of Pharmacology, 2020).
Converted amounts (≈) assume the structure as drawn. Read-outs that look alike come from different tables or passages of the source.

Key:
[1] = tested on: Plasmodium falciparum V1/S (CQ,PY); experiment: microbe, parasite or virus in culture; format: cell-based; settings: 72 h, read-out: IC50 V1/S (CQ,PY)
Protocol: (§1) The activity of the test compounds against P. falciparum in vitro was determined using the tritiated hypoxanthine incorporation assay of Desjardins et al. and additionally modified by Milhous and Chulay (Chulay, Haynes, & Diggs, [1983]; Milhous, Weatherly, Bowdre, & Desjardins, [1985]).
(§2) Compounds were dissolved in DMSO and subsequently diluted in the culture medium (RPMI 1640) supplemented with 10% v/v human plasma. Serial 1:2 drug dilutions were prepared in triplicate in microtitre plates. Culture medium supplemented with 10% v/v human plasma and type A Rhesus positive human erythrocytes infected with P. falciparum strains was added to yield a haematocrit of 3% and a parasitaemia of 0.25–0.55%. The plates were incubated at 37°C in a modular incubator flushed with a mixture of 5% oxygen, 3% carbon dioxide, and 92% nitrogen for 48 h, and then [^3H]hypoxanthine was added to give a final concentration of 12.5–16 μCi·ml^−1. After incubation for additional 24 h, particulate matter was harvested on fibreglass strips and hypoxanthine incorporation determined by scintillation spectrophotometry. […] Delayed death experiments were performed by this standard method but extending the incubation time with the drug up to 96 h.

[2] = tested on: Plasmodium falciparum Dd2 (CQ,Q,PY,S); experiment: microbe, parasite or virus in culture; format: cell-based; settings: for IC50: Plasmodium falciparum
Protocol: as §1, §2

[3] = tested on: P. falciparum 3D7^0087/N9; experiment: P. falciparum murine model (humanized mice), 4-day test; format: in vivo, Plasmodium falciparum
Protocol: The in vivo efficacy evaluation of the compounds was performed using a P. falciparum murine model of malaria in non‐myelodepleted NOD. Cg‐Prkdc^ scid –β2m^ tm1Unc ‐scid IL2R_null (NODscidβ2m^−/−) mice engrafted with human erythrocytes as described previously (Angulo‐Barturen et al., [2008]; Jimenez‐Diaz et al., [2005]; Jimenez‐Diaz et al., [2009]; Jimenez‐Diaz et al., [2009]), as this model enables testing of P. falciparum strains with high infectious burden. Briefly, groups of three mice engrafted with human erythrocytes were infected with 20 × 10^6 of P. falciparum 3D7^0087/N9‐infected erythrocytes/mouse by intravenous route. The mice were randomly assigned to their corresponding experimental groups. The treatment of oral doses QD for 4 days started at day 3 after infection. Parasitaemia was measured at days 3, 5, and 7 post‐infection. The therapeutic efficacy was expressed as the dose (mg·kg^−1) that reduced parasitaemia in peripheral blood of mice at day 7 after infection by 90% (ED90) with respect to vehicle‐treated mice. Chloroquine was included as quality control for each in vivo assay. Efficacy is expressed as the daily dose (ED90), or equivalent exposure (AUCED90), administered to mice necessary to reduce parasitaemia at day 7 by 90% with respect to vehicle‐treated mice. The ED90 is estimated by fitting a four‐decade logistic equation for the log10 [parasitaemia at day 7] versus the log10 [dose] using GraphPad Prism 5.01 (GraphPad Software Inc., San Diego, CA).

[4] = tested on: Plasmodium falciparum T9/94 (CQ); experiment: [3H]hypoxanthine incorporation antimalarial assay, strain T9/94; format: cell-based; settings: 72 h, read-out: IC50 T9/94 (CQ)
Protocol: as §1, §2

[5] = tested on: Plasmodium falciparum K1 (CQ,PY); experiment: [3H]hypoxanthine incorporation antimalarial assay, strain K1; format: cell-based; settings: K1, 72 h, read-out: IC50 K1 (CQ,PY)
Protocol: as §1, §2

[6] = tested on: Plasmodium falciparum FCR3 (CQ,AT); experiment: [3H]hypoxanthine incorporation antimalarial assay, strain FCR3; format: cell-based; settings: FCR3, 72 h, read-out: IC50 FCR3 (CQ,AT)
Protocol: as §1, §2

[7] = tested on: Plasmodium falciparum 3D7A (sensitive); parameters: method as in Pesic et al. ([2012]); settings: 72 h of incubation; ref Pesic et al. ([2012]); cited from earlier work
haem polymerization = experiment: Cell-free haem polymerization assay; format: biochemical; settings: for IC50: cell‐free, N = 2
Protocol: Experiments were performed according to Tripathi, Khan, Walker, and […] ([2004]). Briefly, a solution of sodium acetate containing mono-oleoyl glycol and the corresponding inhibitor at different concentrations is placed in 1.5-ml reaction tubes. […] Multiple washing steps with Tris/SDS and bicarbonate, to remove monomeric haem and haem aggregates, allow quantification of de novo formed β-haematin.

[8] = tested on: Plasmodium falciparum W2 (chloroquine/pyrimethamine resistant); parameters: method as in Pesic et al. ([2012]); settings: 72 h of incubation; ref Pesic et al. ([2012]); cited from earlier work
[9] = tested on: Plasmodium falciparum 7G8 (CQ, PY); experiment: [3H]hypoxanthine incorporation antimalarial assay, strain 7G8; format: cell-based; settings: 7G8, 72 h, read-out: IC50 7G8 (CQ, PY)
Protocol: as §1, §2

[10] = Pharmacokinetics in P. falciparum infected and uninfected humanized mice; settings: oral 10 mg·kg^−1, mean (SD); for Cmax / Tmax: NODscidβ2m^−/−, mouse, in vivo, po, 10 mg/kg; for Cmax: C max, blood; for Tmax: t max
Protocol: For pharmacokinetic (PK) studies in mice, animals were dosed either by intravenous (i.v.) or oral (p.o.) route.
(§3) For studies performed in Swiss albino CD‐1 mice (Harlan Laboratories, Spain), in order to obtain simultaneous blood and plasma profiles and blood‐to‐plasma (B/P) ratio, PK was performed using terminal sampling of N = 3 animals per time point and data evaluated using composite analysis. For studies performed in P. falciparum infected and non‐infected NODscidβ2m^−/− mice (Charles River Laboratories, France), only whole blood was obtained by serial sampling of N = 3 animals using tail puncture.
(§4) For analysis of whole blood samples, 25 μl of fresh blood were mixed with 25 μl of saponin solution (0.1% in water) and immediately frozen on dry ice. Plasma was obtained by centrifugation of fresh blood at 2,500 g for 10 min. Both blood and plasma samples were stored frozen at −80°C until analysis.
(§5) Diluted blood and plasma samples were processed under standard liquid–liquid extraction procedures using acetonitrile containing internal standard (clarithromycin, 100 ng·ml^−1) and analysed by LC–MS/MS in positive ion mode with electrospray. Samples were assayed for parent compound using a Sciex API 4000 and Sciex API‐2000 Triple Quadrupole Mass Spectrometer (Sciex, Division of MDS Inc., Toronto, Canada), against a series of matrix matched calibration curve standards, using multiple reaction monitoring (MRM) at the specific transitions for each compound. Non‐compartmental analysis was performed using WinNonlin, version 4.1 (Pharsight, Mountain View, CA), and the main pharmacokinetic parameters were estimated.

HepG2 cells = experiment: Cytotoxicity assay (MTS); format: cell-based, human; settings: 24 h, N = 2
Protocol: The detailed protocol for cytotoxicity measurement is described elsewhere (Verbanac et al., [2005]). In brief, HepG2 cells were maintained in complete RPMI 1640 medium supplemented with 10% FBS at 37°C in a 5% CO2 atmosphere. Each culture in the 96‐well plates contained 50,000 cells which were exposed to serial dilutions (1:2) of compounds initially dissolved in DMSO and subsequently diluted in supplemented RPMI 1640 medium. Compounds were tested in duplicates, and plates were incubated for 24 h at 37°C in 5% CO2. The cytotoxicity assay was performed using the MTS CellTiter 96 AQueous One Solution Cell Proliferation Assay (Promega, USA). After the addition of MTS reagent and 2 h of incubation at 37°C in 5% CO2, the absorbance at 490 nm was recorded and Tox50 determined based on the obtained response curves.

[11] = tested on: Plasmodium falciparum W2 (chloroquine/pyrimethamine resistant); experiment: [3H]hypoxanthine incorporation antimalarial assay, strain W2; format: cell-based; settings: W2, 72 h, read-out: Plasmodium falciparum IC50 W2
Protocol: as §1, §2

[12] = tested on: Plasmodium falciparum 3D7A (sensitive); experiment: [3H]hypoxanthine incorporation antimalarial assay, strain 3D7A; format: cell-based; settings: 72 h of incubation, N = 3
Protocol: as §1, §2

[13] = Pharmacokinetic studies in CD-1 mice
Protocol: For pharmacokinetic (PK) studies in mice, animals were dosed either by intravenous (i.v.) or oral (p.o.) route. For i.v. administration, the dosing volume was 10 ml·kg^−1 for a total dose of 12.5 mg·kg^−1, and for p.o. administration, the dosing volume was 20 ml·kg^−1 for a total dose of 12.5 mg·kg^−1. Dosing solutions were prepared in 100% saline ([…]) both for i.v. and p.o. administration for all compounds with the exception of compound 4 for which dosing solutions were prepared in PBS with 5% Cremophor‐EL (Fluka). Following i.v. dosing, blood samples were collected at 5 and 15 min, 1, 3, 6, 8, 24, and 48 h post‐dose. Following oral dosing, blood samples were collected at 15 and 30 min, 1, 2, 4, 6, 8, 24, and 48 h post‐dose.
as §3, §4, §5

[14] = tested on: Plasmodium falciparum Dd2(AZ^R); experiment: [3H]hypoxanthine incorporation antimalarial assay, azithromycin-resistant mutant Dd2(AZ^R); format: cell-based
Protocol: as §1, §2

S. pneumoniae SP030 = experiment: Antibacterial screen, broth microdilution; format: cell-based; settings: Streptococcus pneumoniae
Protocol: (§6) Antibacterial activity of compounds was determined by a standard broth microdilution method (Clinical Laboratory Standard Institute CLSI, [2009]), except that for Streptococcus strains lysed blood was substituted with 5% horse serum in the testing medium. […] The activities are expressed as minimum inhibitory concentrations (MICs) in units of μg·ml^−1. […] The organisms tested represented macrolide sensitive Gram‐positive pathogens that are mainly targeted by macrolide antibiotics. Tested streptococci were clinical isolates Streptococcus pneumoniae SP030 and Streptococcus pyogenes 3565 from internal strain collection, and other strains were obtained from ATCC bioresource centre, Staphylococcus aureus ATCC13709, Haemophilus influenzae ATCC49247, and Moraxella catarrhalis ATCC23246. Double dilutions of tested compounds were prepared using TECAN Genesis 150. Bacteria were grown on appropriate agar plates (Becton Dickinson, USA)—Columbia agar with 5% sheep blood for streptococci and M. catarrhalis, Mueller‐Hinton chocolate agar for H. influenzae , and Mueller‐Hinton agar for staphylococci.

S. pyogenes 3565 = experiment: Antibacterial screen, broth microdilution; format: cell-based; settings: Streptococcus pyogenes
Protocol: as §6

S. aureus ATCC13709 = experiment: Antibacterial screen, broth microdilution; format: cell-based; settings: Staphylococcus aureus
Protocol: as §6

H. influenzae ATCC49247 = experiment: Antibacterial screen, broth microdilution; format: cell-based; settings: Haemophilus influenzae
Protocol: as §6

M. catarrhalis ATCC23246 = experiment: Antibacterial screen, broth microdilution; format: cell-based, Moraxella catarrhalis
Protocol: as §6

[15] = Swiss albino CD-1, mouse, whole blood, iv, 12.5 mg/kg

For CCN(CC)CCCC(C)Nc1ccnc2cc(Cl)ccc12 (stereo not drawn) [Chloroquine, reference compound], the IC50 [1] was 388 nM, the IC50 ([2]; DD2, 72 h, read-out: IC50 Dd2 (CQ,Q,PY,S)) was 356 nM and the “mice with no detectable parasitaemia at day 35” value ([3]; 100 mg·kg^−1, groups of three mice) was “all mice”. For the same molecule, the “AUCED90 (daily molar exposure for 90% parasitaemia reduction)” value ([3]; humanized mice, oral) was 3.1 μM·h^−1·day^−1, the IC50 [4] was 178 nM and the IC50 [5] was 313 nM. For the same molecule, the IC50 [6] was 138 nM, the IC50 [7] was 16 nM and the IC50 (haem polymerization) was 3800 to 10600 nM. The IC50 [8] was 431 nM, the IC50 [9] was 194 nM and the Cmax ([10]; infected (I) humanized mice) was 210 ng/mL. The Cmax ([10]; uninfected (U) humanized mice) was 72.3 ng/mL, the Tmax ([10]; infected (I) humanized mice) was 2.33 h and the Tmax ([10]; uninfected (U) humanized mice) was 1.92 h. The “DNAUC(0–24)” value ([10]; infected (I) humanized mice) was 200 (13) ng*h·ml^−1·mg^−1·kg^−1 and the “DNAUC(0–24)” value ([10]; uninfected (U) humanized mice) was 63 (23) ng*h·ml^−1·mg^−1·kg^−1.

In the case of CC[C@H]1OC(=O)[C@H](C)[C@@H](O[C@H]2C[C@@](C)(OC)[C@@H](O)[C@H](C)O2)[C@H](C)[C@@H](O[C@@H]2O[C@H](C)C[C@H](N(C)C(C)=O)[C@H]2O)[C@](C)(O)C[C@@H](C)CN(CCCNC(=O)Nc2ccc3ccccc3c2)[C@H](C)[C@@H](O)[C@]1(C)O [Compound 4], the “Tox50 HepG2” value (HepG2 cells) is reported as 38 µM, the Delayed death phenotype ([2]; Dd2 and Dd2(AZ^R), 48 versus 96 h) is reported as “No” and the IC50 ([2]; DD2, 48 h, read-out: IC50 Dd2 48 h) is reported as 65 nM. The IC50 ([2]; DD2, 96 h, read-out: IC50 Dd2 96 h) was 70 nM, the IC50 [11] was 19 nM and the IC50 [12] was 13 nM. For the same molecule, the “B/P (ratio of AUC0−t in whole blood and plasma)” value ([13]; CD‐1 mice, after oral administration) was 0.4, the “DNAUCPO (AUC0−t divided by the dose)” value ([13]; CD‐1 mice, blood, oral gavage 12.5 mg·kg^−1) was 0.3 ng·kg·h/mL/mg and the half-life ([13]; Swiss albino CD-1, mouse, whole blood, intravenous, 12.5 mg/kg) was 3.76 h. It also gave a Vd [13, 15] of 0.708 L/kg, a clearance [13, 15] of 14.8 mL/min/kg and a bioavailability ([13]; Swiss albino CD-1, mouse, whole blood, po, 12.5 mg/kg, F, CD‐1 mice, 12.5 mg·kg^−1 i.v. and p.o.) of less than 1%. It also gave an IC50 ([14]; DD2, 48 h, read-out: IC50 Dd2(AZ^R) 48 h) of 68 nM, an IC50 ([14]; DD2, 96 h, read-out: IC50 Dd2(AZ^R) 96 h) of 53 nM and an MIC (S. pneumoniae SP030) greater than 64 µg/mL. The MIC (S. pyogenes 3565) was greater than 64 µg/mL, the MIC (S. aureus ATCC13709) was greater than 64 µg/mL and the MIC (H. influenzae ATCC49247) was greater than 64 µg/mL. For the same molecule, the IC50 (haem polymerization) was 46300 nM, the “weaker potency in haem polymerization” value (haem polymerization; compared with compounds 1, 2, 3 and chloroquine) was ~ 10 fold and the “activity against M. catarrhalis (in words)” value (M. catarrhalis ATCC23246) was “only minor activity”. The MIC (M. catarrhalis ATCC23246; Moraxella catarrhalis, ATCC23246, broth microdilution) was 32 µg/mL (≈ 32.3 µM).
